ChEMBL document CHEMBL1275582, “Role of the Ser-287-Asn replacement in the hydrolysis spectrum extension of AmpC beta-lactamases in Escherichia coli” (2009)
In brackets after ≈: the same amount, converted by molar mass.

Key:
[1] = test system: Escherichia coli; assay: Antibacterial activity against Escherichia coli TOP10 expressing AmpC-A by agar dilution method in presence of 4 mg/liter Tazobactam; assay type: functional
[2] = test system: Escherichia coli; assay: Antibacterial activity against Escherichia coli TOP10 expressing AmpC-A S287N mutant protein by agar dilution method in presence of 4 mg/liter Tazobactam; assay type: functional
[3] = test system: Escherichia coli; assay: Antibacterial activity against Escherichia coli TOP10 expressing AmpC-B2 by agar dilution method; assay type: functional
[4] = test system: Escherichia coli; assay: Antibacterial activity against Escherichia coli TOP10 expressing AmpC-B2 by agar dilution method in presence of 4 mg/liter Tazobactam; assay type: functional
[5] = test system: Escherichia coli; assay: Antibacterial activity against Escherichia coli TOP10 expressing AmpC-A by agar dilution method; assay type: functional
[6] = test system: Escherichia coli; assay: Antibacterial activity against Escherichia coli TOP10 expressing AmpC-B2 S287N mutant protein by agar dilution method; assay type: functional
[7] = test system: Escherichia coli; assay: Antibacterial activity against Escherichia coli TOP10 by agar dilution method in presence of 4 mg/liter Tazobactam; assay type: functional
[8] = test system: Escherichia coli; assay: Antibacterial activity against Escherichia coli TOP10 expressing AmpC-B2 S287N mutant protein by agar dilution method in presence of 4 mg/liter Tazobactam; assay type: functional
[9] = test system: Escherichia coli; assay: Antibacterial activity against Escherichia coli TOP10 expressing AmpC-A S287N mutant protein by agar dilution method; assay type: functional
[10] = test system: Escherichia coli; assay: Antibacterial activity against Escherichia coli TOP10 by agar dilution method; assay type: functional
[11] = test system: Escherichia coli; assay: Antibacterial activity against Escherichia coli TOP10 expressing AmpC-B2 S287N mutant protein by agar dilution method in presence of 2 mg/liter clavulanic acid; assay type: functional
[12] = test system: Escherichia coli; assay: Antibacterial activity against Escherichia coli TOP10 expressing AmpC-A S287N mutant protein by agar dilution method in presence of 2 mg/liter clavulanic acid; assay type: functional
[13] = test system: Escherichia coli; assay: Antibacterial activity against Escherichia coli TOP10 expressing AmpC-B2 by agar dilution method in presence of 2 mg/liter clavulanic acid; assay type: functional
[14] = test system: Escherichia coli; assay: Antibacterial activity against Escherichia coli TOP10 expressing AmpC-A by agar dilution method in presence of 2 mg/liter clavulanic acid; assay type: functional
[15] = test system: Escherichia coli; assay: Antibacterial activity against Escherichia coli TOP10 by agar dilution method in presence of 2 mg/liter clavulanic acid; assay type: functional
[16] = test system: Escherichia coli; assay: Activity of Escherichia coli TOP10 beta-lactamase AmpC-A S287N mutant
[17] = test system: Escherichia coli; assay: Activity of Escherichia coli TOP10 beta-lactamase AmpC-B2
[18] = test system: Escherichia coli; assay: Activity of Escherichia coli TOP10 beta-lactamase AmpC-A
[19] = test system: Escherichia coli; assay: Activity of Escherichia coli TOP10 beta-lactamase AmpC-B2 S287N mutant

Which MIC [1] does the source give for `CCN1CCN(C(=O)N[C@@H](C(=O)N[C@@H]2C(=O)N3[C@@H]2SC(C)(C)[C@@H]3C(=O)O)c2ccccc2)C(=O)C1=O` [PIPERACILLIN] here?
The MIC was 4 µg/mL.

And the MIC [2]?
Its MIC is 8 µg/mL.

What about the MIC [3] of the same compound?
Its MIC is 2 µg/mL (≈ 3.86 µM).

What about the MIC [4] of the same compound?
Its MIC is 4 µg/mL.

What about the MIC [5] of the same compound?
Its MIC is 4 µg/mL (≈ 7.73 µM).

What about the MIC [6] of the same compound?
Its MIC is 4 µg/mL (≈ 7.73 µM).

And the MIC [7]?
The MIC was 1 µg/mL.

And the MIC [8]?
The MIC was 4 µg/mL.

And the MIC [9]?
The MIC was 8 µg/mL (≈ 15.5 µM).

What about the MIC [10] of the same compound?
The MIC was 1 µg/mL (≈ 1.93 µM).

For `CC1(C)S[C@@H]2[C@H](NC(=O)[C@H](C(=O)O)c3ccsc3)C(=O)N2[C@H]1C(=O)O` [TICARCILLIN], which MIC [11] is on record?
The MIC was 64 µg/mL.

And the MIC [3]?
The MIC was 2 µg/mL (≈ 5.2 µM).

And the MIC [12]?
Its MIC is 256 µg/mL.

And the MIC [13]?
Its MIC is 2 µg/mL.

And the MIC [14]?
The MIC was 2 µg/mL.

And the MIC [5]?
Its MIC is 2 µg/mL (≈ 5.2 µM).

And the MIC [6]?
Its MIC is 64 µg/mL (≈ 166 µM).

And the MIC [15]?
The MIC was 1 µg/mL.

What about the MIC [9] of the same compound?
The MIC was 256 µg/mL (≈ 666 µM).

What about the MIC [10] of the same compound?
The MIC was 1 µg/mL (≈ 2.6 µM).

What does the source list for `O=C(Cc1cccs1)N[C@@H]1C(=O)N2C(C(=O)[O-])=C(C[n+]3ccccc3)CS[C@H]12`?
kcat [16]: 50 s⁻¹; kcat [17]: 240 s⁻¹; kcat [18]: 230 s⁻¹; kcat [19]: 112 s⁻¹

How did the Km [16] turn out when `CC(=O)OCC1=C(C(=O)O)N2C(=O)[C@@H](NC(=O)Cc3cccs3)[C@H]2SC1` [CEPHALOTHIN] was run?
The Km was 5500 µM.

What about the kcat [16] of the same compound?
The kcat was 65 s⁻¹.

What about the MIC [3] of the same compound?
Its MIC is greater than 512 µg/mL.

What about the Km [17] of the same compound?
Its Km is 85 µM.

And the kcat [17]?
Its kcat is 540 s⁻¹.

What about the MIC [5] of the same compound?
The MIC was greater than 512 µg/mL.

And the Km [18]?
The Km was 30 µM.

What about the kcat [18] of the same compound?
Its kcat is 500 s⁻¹.

And the kcat [19]?
The kcat was 10 s⁻¹.

What about the MIC [10] of the same compound?
The MIC was 2 µg/mL (≈ 5.04 µM).

Which results are given for `C[C@H]1[C@H](NC(=O)/C(=N\OC(C)(C)C(=O)O)c2csc(N)n2)C(=O)N1S(=O)(=O)O` [AZTREONAM]?
MIC [3]: 0.06 µg/mL (≈ 0.138 µM); MIC [5]: 0.125 µg/mL (≈ 0.287 µM); MIC [9]: 16 µg/mL (≈ 36.7 µM)

What does the source list for `CC1(C)S[C@@H]2[C@H](NC(=O)[C@H](N)c3ccc(O)cc3)C(=O)N2[C@H]1C(=O)O` [AMOXICILLIN]?
MIC [11]: 512 µg/mL; MIC [3]: > 512 µg/mL; MIC [12]: 512 µg/mL; MIC [13]: 256 µg/mL; MIC [14]: > 512 µg/mL; MIC [5]: > 512 µg/mL; MIC [15]: 2 µg/mL; MIC [10]: 2 µg/mL (≈ 5.47 µM)

Which Km [16] does the source give for `CC(C)(O/N=C(\C(=O)N[C@@H]1C(=O)N2C(C(=O)[O-])=C(C[n+]3ccccc3)CS[C@H]12)c1csc(N)n1)C(=O)O` [CEFTAZIDIME] here?
The Km was 400 µM.

And the kcat [16]?
Its kcat is 0.2 s⁻¹.

And the MIC [3]?
The MIC was 1 µg/mL (≈ 1.83 µM).

What about the kcat [17] of the same compound?
Its kcat is 0.3 s⁻¹.

And the MIC [5]?
Its MIC is 2 µg/mL (≈ 3.66 µM).

And the MIC [6]?
The MIC was 4 µg/mL (≈ 7.32 µM).

And the Km [18]?
Its Km is 70 µM.

And the kcat [18]?
Its kcat is 0.5 s⁻¹.

What about the MIC [9] of the same compound?
The MIC was 512 µg/mL (≈ 937 µM).

What about the Km [19] of the same compound?
The Km was 1000 µM.

What about the kcat [19] of the same compound?
The kcat was 0.01 s⁻¹.

What about the MIC [10] of the same compound?
Its MIC is 0.06 µg/mL (≈ 0.11 µM).

Which results are given for `C[C@@H](O)[C@H]1C(=O)N2C(C(=O)O)=C(SCCNC=N)C[C@H]12` [IMIPENEM ANHYDROUS]?
Km [16]: 200 µM; kcat [16]: 0.06 s⁻¹; MIC [3]: 0.06 µg/mL (≈ 0.2 µM); Km [17]: 32 µM; kcat [17]: 0.09 s⁻¹; MIC [5]: 0.06 µg/mL (≈ 0.2 µM); MIC [6]: 0.06 µg/mL (≈ 0.2 µM); MIC [9]: 0.06 µg/mL (≈ 0.2 µM); Km [19]: 2000 µM; kcat [19]: 0.06 s⁻¹

Which results are given for `CO/N=C(\C(=O)N[C@@H]1C(=O)N2C(C(=O)[O-])=C(C[N+]3(C)CCCC3)CS[C@H]12)c1csc(N)n1` [CEFEPIME]?
kcat [16]: 1.35 s⁻¹; MIC [3]: 0.06 µg/mL (≈ 0.125 µM); MIC [5]: 0.06 µg/mL (≈ 0.125 µM); MIC [9]: 16 µg/mL (≈ 33.3 µM); kcat [19]: 0.25 s⁻¹

`CO[C@@]1(NC(=O)Cc2cccs2)C(=O)N2C(C(=O)O)=C(COC(N)=O)CS[C@@H]21` [CEFOXITIN] was tested. Which Km [16] did it give?
Its Km is 700 µM.

And the kcat [16]?
The kcat was 0.1 s⁻¹.

And the MIC [3]?
The MIC was 128 µg/mL (≈ 299 µM).

What about the Km [17] of the same compound?
The Km was 1.5 µM.

What about the kcat [17] of the same compound?
Its kcat is 0.4 s⁻¹.

And the MIC [5]?
The MIC was 128 µg/mL (≈ 299 µM).

And the MIC [6]?
The MIC was 128 µg/mL (≈ 299 µM).

And the Km [18]?
The Km was 1 µM.

What about the kcat [18] of the same compound?
The kcat was 0.3 s⁻¹.

What about the MIC [9] of the same compound?
Its MIC is 32 µg/mL (≈ 74.9 µM).

What about the Km [19] of the same compound?
The Km was 800 µM.

What about the kcat [19] of the same compound?
The kcat was 0.08 s⁻¹.

What about the MIC [10] of the same compound?
Its MIC is 2 µg/mL (≈ 4.68 µM).

Which Km [16] does the source give for `CO/N=C(\C(=O)N[C@@H]1C(=O)N2C(C(=O)O)=C(COC(C)=O)CS[C@H]12)c1csc(N)n1` [CEFOTAXIME] here?
Its Km is 100 µM.

And the kcat [16]?
The kcat was 0.08 s⁻¹.

What about the MIC [3] of the same compound?
The MIC was 0.5 µg/mL (≈ 1.1 µM).

And the Km [17]?
The Km was 45 µM.

And the kcat [17]?
The kcat was 0.1 s⁻¹.

What about the MIC [5] of the same compound?
The MIC was 1 µg/mL (≈ 2.2 µM).

And the MIC [6]?
The MIC was 1 µg/mL (≈ 2.2 µM).

And the Km [18]?
The Km was 25 µM.

And the kcat [18]?
Its kcat is 0.2 s⁻¹.

What about the MIC [9] of the same compound?
Its MIC is 16 µg/mL (≈ 35.1 µM).

What about the Km [19] of the same compound?
The Km was 1000 µM.

What about the kcat [19] of the same compound?
Its kcat is 0.045 s⁻¹.

What about the MIC [10] of the same compound?
The MIC was 0.06 µg/mL (≈ 0.132 µM).
